Results on one compound are retold here after PMC12095040, “GRK5 is required for adipocyte differentiation through ERK activation” (International Journal of Obesity (2005), 2024).

SMILES strings stand for the structures.

In the assay the target is GRK5 (Homo sapiens, UniProt P34947). The assay can be described thus: ADP-Glo luminescent kinase assay, casein substrate, […] ATP. In kind it is biochemical. For orientation: ADP-Glo turns the ADP formed in a reaction into a luminescent signal.

One may read the IC50 as the concentration needed to halve the response being measured.

Sequence of GRK5 (P34947 whole entry): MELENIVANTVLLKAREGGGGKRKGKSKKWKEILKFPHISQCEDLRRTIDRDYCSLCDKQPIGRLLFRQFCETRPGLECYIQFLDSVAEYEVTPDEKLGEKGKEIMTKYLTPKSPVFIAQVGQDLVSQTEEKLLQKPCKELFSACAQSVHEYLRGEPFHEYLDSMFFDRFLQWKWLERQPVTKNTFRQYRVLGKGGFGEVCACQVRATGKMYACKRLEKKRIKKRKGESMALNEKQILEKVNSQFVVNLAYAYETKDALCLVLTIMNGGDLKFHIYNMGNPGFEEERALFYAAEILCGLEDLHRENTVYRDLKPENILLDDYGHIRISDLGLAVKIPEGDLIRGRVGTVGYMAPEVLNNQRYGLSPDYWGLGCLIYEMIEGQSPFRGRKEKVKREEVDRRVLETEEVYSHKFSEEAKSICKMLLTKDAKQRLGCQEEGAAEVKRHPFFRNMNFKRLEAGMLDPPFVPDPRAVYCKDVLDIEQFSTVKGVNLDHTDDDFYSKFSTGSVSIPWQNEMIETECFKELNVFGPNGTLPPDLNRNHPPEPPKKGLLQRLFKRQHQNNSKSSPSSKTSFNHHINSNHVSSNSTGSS

Turning to `COc1cc(Nc2cc3c(cn2)nc(-c2ccco2)n3C)cc(OC)c1OC` [GRK5-IN-2], the IC50 was 49.7 µM.
